Where “and” joins values, the source holds several entries; their conditions need not be identical. Identical values can stand only once.
Legend:
Format in all cases: in vivo
[1] = Pharmacokinetics of a single oral dose of Toltrazuril in horses (blood levels); conditions: horses receiving single oral 10 mg/kg Toltrazuril
Protocol: A pharmacokinetic study was conducted in horses comparing blood levels of Toltrazuril, Ponazuril and Toltrazuril Sulfoxide at various times post a single dose of Toltrazuril. All horses received a single dose of 10 mg/kg, which was administered orally as a suspension. Blood samples were drawn at the time of treatment (0) and at 0.25, 0.5, 1, 2, 4, 6, 12, 24, 48 and 72 hours post treatment. […] This was an indication that Ponazuril, alone, would produce acceptable blood levels that are envisioned to pass the blood-brain barrier, a characteristic required to treat neurological diseases such as those caused by Sarcocystis neurona, Toxoplasma gondii, Neospora caninum and Neospora heugesi.

[2] = Serum drug levels after repeated doses of Toltrazuril in horses; set-up: unit not given here; conditions: for Toltrazuril Level (Table 5b) / Toltrazuril Level (Table 5a): per horse; for AVG Toltrazuril Level (Table 5b) / AVG Toltrazuril Level (Table 5a): average
Protocol: (§1) This experiment was conducted in order to determine whether triazineones such as Toltrazuril can pass the blood-brain barrier. Normal horses were divided into three groups of three horses per group. Group 1 horses received Toltrazuril administered orally as a 5% suspension at a dose level of 2.5 mg/Kg. Group 2 horses received Toltrazuril administered orally as a 5% suspension at a dose level of 5.0 mg/Kg. Group 3 horses received Toltrazuril administered orally as a 5% suspension at a dose level of 7.5 mg/Kg. The dosing was repeated daily for 10 days. Blood samples were drawn at 48, 96 and 240 hours and the concentration of Toltrazuril, Toltrazuril sulfoxide and Ponazuril in the serum was measured. Ten days after the start of the treatment (Day 10), a sample of cerebral spinal fluid was removed from each horse and the concentrations of Toltrazuril, Toltrazuril Sulfoxide and Ponazuril were again measured in these samples. The concentrations of Toltrazuril, Toltrazuril Sulfoxide and Ponazuril in the serum and cerebral spinal fluid are reported in TABLES 5a and 5b.

[3] = Cerebral spinal fluid drug levels / passage of blood-brain barrier after repeated doses of Toltrazuril in horses; conditions: for AVG Cerebral Spinal Fluid level (Table 5b) / AVG Cerebral Spinal Fluid level (Table 5a): CSF, average, Day 10
Protocol: as §1

Cc1cc(-n2c(=O)[nH]c(=O)n(C)c2=O)ccc1Oc1ccc([S+]([O-])C(F)(F)F)cc1 (stereo not drawn) [Toltrazuril Sulfoxide]
Levels in serum / bloodstream (in words) [1]: significant levels

Cc1cc(-n2c(=O)[nH]c(=O)n(C)c2=O)ccc1Oc1ccc(SC(F)(F)F)cc1 [Toltrazuril]
Toltrazuril Level (Table 5b) ([2]; 2.5 mg/Kg oral Toltrazuril daily for 10 days, 240 Hrs, 2.5 mg/kg): 2.61 and 2.36 and 4.04 | Toltrazuril Level (Table 5a) ([2]; 2.5 mg/Kg oral daily for 10 days, 96 Hrs, 2.5 mg/kg): 9.85 and 9.09 and 13.1 | Toltrazuril Level (Table 5a) ([2]; 2.5 mg/Kg oral daily for 10 days, 240 Hrs, 2.5 mg/kg): 15.29 and 9.60 and 15.21 | Toltrazuril Level (Table 5b) ([2]; 5.0 mg/Kg oral Toltrazuril daily for 10 days, 48 Hrs, 5 mg/kg): 0.48 and 0.63 | Toltrazuril Level (Table 5b) ([2]; 5.0 mg/Kg oral Toltrazuril daily for 10 days, 96 Hrs, 5 mg/kg): 2.09 and 2.03 and 2.66 | Toltrazuril Level (Table 5a) ([2]; 5.0 mg/Kg oral daily for 10 days, 48 Hrs, 5 mg/kg): 7.28 and 9.18 and 9.26 | Toltrazuril Level (Table 5a) ([2]; 5.0 mg/Kg oral daily for 10 days, 96 Hrs, 5 mg/kg): 14.17 and 14.03 and 18.19 | Toltrazuril Level (Table 5a) ([2]; 5.0 mg/Kg oral daily for 10 days, 240 Hrs, 5 mg/kg): 24.92 and 16.54 and 17.59 | Toltrazuril Level (Table 5b) ([2]; 7.5 mg/Kg oral Toltrazuril daily for 10 days, 96 Hrs, 7.5 mg/kg): 2.69 and 2.89 and 3.09 | Toltrazuril Level (Table 5b) ([2]; 7.5 mg/Kg oral Toltrazuril daily for 10 days, 240 Hrs, 7.5 mg/kg): 6.31 and 6.37 and 7.06 | Toltrazuril Level (Table 5a) ([2]; 7.5 mg/Kg oral daily for 10 days, 48 Hrs, 7.5 mg/kg): 9.90 and 10.46 | Toltrazuril Level (Table 5a) ([2]; 7.5 mg/Kg oral daily for 10 days, 96 Hrs, 7.5 mg/kg): 27.74 and 19.55 and 18.47 | Toltrazuril Level (Table 5a) ([2]; 7.5 mg/Kg oral daily for 10 days, 240 Hrs, 7.5 mg/kg): 30.08 and 24.15 and 23.53 | AVG Toltrazuril Level (Table 5b) ([2]; 2.5 mg/Kg oral Toltrazuril daily for 10 days, 48 Hrs): 1.41 | AVG Toltrazuril Level (Table 5b) ([2]; 2.5 mg/Kg oral Toltrazuril daily for 10 days, 96 Hrs): 1.76 | AVG Toltrazuril Level (Table 5b) ([2]; 2.5 mg/Kg oral Toltrazuril daily for 10 days, 240 Hrs): 3.00 | AVG Toltrazuril Level (Table 5a) ([2]; 2.5 mg/Kg oral daily for 10 days, 48 Hrs): 6.70 | AVG Toltrazuril Level (Table 5a) ([2]; 2.5 mg/Kg oral daily for 10 days, 96 Hrs): 10.68 | AVG Toltrazuril Level (Table 5a) ([2]; 2.5 mg/Kg oral daily for 10 days, 240 Hrs): 13.37 | AVG Toltrazuril Level (Table 5b) ([2]; 5.0 mg/Kg oral Toltrazuril daily for 10 days, 48 Hrs): 0.53 | AVG Toltrazuril Level (Table 5b) ([2]; 5.0 mg/Kg oral Toltrazuril daily for 10 days, 96 Hrs): 2.26 | AVG Toltrazuril Level (Table 5b) ([2]; 5.0 mg/Kg oral Toltrazuril daily for 10 days, 240 Hrs): 5.02 | AVG Toltrazuril Level (Table 5a) ([2]; 5.0 mg/Kg oral daily for 10 days, 48 Hrs): 8.57 | AVG Toltrazuril Level (Table 5a) ([2]; 5.0 mg/Kg oral daily for 10 days, 96 Hrs): 15.46 | AVG Toltrazuril Level (Table 5a) ([2]; 5.0 mg/Kg oral daily for 10 days, 240 Hrs): 19.68 | AVG Toltrazuril Level (Table 5b) ([2]; 7.5 mg/Kg oral Toltrazuril daily for 10 days, 48 Hrs): 2.55 | AVG Toltrazuril Level (Table 5b) ([2]; 7.5 mg/Kg oral Toltrazuril daily for 10 days, 96 Hrs): 2.89 | AVG Toltrazuril Level (Table 5b) ([2]; 7.5 mg/Kg oral Toltrazuril daily for 10 days, 240 Hrs): 6.58 | AVG Toltrazuril Level (Table 5a) ([2]; 7.5 mg/Kg oral daily for 10 days, 48 Hrs): 10.18 | AVG Toltrazuril Level (Table 5a) ([2]; 7.5 mg/Kg oral daily for 10 days, 96 Hrs): 21.92 | AVG Toltrazuril Level (Table 5a) ([2]; 7.5 mg/Kg oral daily for 10 days, 240 Hrs): 25.95 | AVG Cerebral Spinal Fluid level (Table 5b) ([3]; 2.5 mg/Kg oral Toltrazuril daily for 10 days): 0.09 | AVG Cerebral Spinal Fluid level (Table 5a) ([3]; 2.5 mg/Kg oral daily for 10 days): 0.15 | AVG Cerebral Spinal Fluid level (Table 5b) ([3]; 5.0 mg/Kg oral Toltrazuril daily for 10 days): 0.16 | AVG Cerebral Spinal Fluid level (Table 5a) ([3]; 5.0 mg/Kg oral daily for 10 days): 0.19 | AVG Cerebral Spinal Fluid level (Table 5b) ([3]; 7.5 mg/Kg oral Toltrazuril daily for 10 days): 0.22 | AVG Cerebral Spinal Fluid level (Table 5a) ([3]; 7.5 mg/Kg oral daily for 10 days): 0.39 | Crossing of the blood-brain barrier ([3]; horses, after oral Toltrazuril daily for 10 days): effectively cross the blood-brain barrier
